Measurements published in patent publication US9145351B2, “Azole derivatives, methods for producing the same, intermediate thereof, agro-horticultural agents” (KUREHA CORPORATION, priority 2009, dated 2015).
Like-named read-outs stand apart in the source and are kept apart here.

Columns and labels:
Assay type in all cases: cell-based
[1] = system: Pyricularia oryzae; assay: microbe, parasite or virus in culture; settings: for inhibition at 5 µg/mL / inhibition at 50 µg/mL: Pyricularia oryzae
[2] = system: Pseudocercoporella herpotrichoides; assay: Plate medium fungicidal assay, wheat eye spot P.h (Experimental Example 5)
Description: (§1) In this Experimental Example, the fungicidal effects of the inventive compounds on various phytopathogenic fungi for plants and hazardous microorganism for industrial materials were examined by the methods described below. Each inventive compound was dissolved in 2 ml of dimethyl sulfoxide. 0.6 ml of this solution was added to 60 nil of a PDA medium (potato dextrose agar medium) at about 60 degrees C., which was mixed thoroughly in a 100-ml conical flask, and poured into a dish, where it was solidified, thereby obtaining a plate medium containing the inventive compound at 50 mg/L and 5 mg/L. On the other hand, a subject microorganism previously cultured on a plate medium was cut out using a cork borer whose diameter was 4 mm, and inoculated to the test compound-containing plate medium described above. […] The growth degree of the microorganism on the test compound-containing plate medium thus observed was compared with the growth degree of the microorganism in the untreated group, and % mycelial growth inhibition was calculated by the following equation. R=100(dc−dt)/dc wherein R=% mycelial extension inhibition, dc=flora diameter in untreated plate, dt=flora diameter in treated plate. The results obtained as described above were evaluated as one of the 5 grades according to the following criteria. […] Wheat eye spot (Pseudocercoporella herpotrichoides) P.h

[3] = system: Giberella fujikuroi; assay: Plate medium fungicidal assay, rice bakanae disease G.f (Experimental Example 5)
Description: as §1, with “Rice bakanae disease (Giberella fujikuroi) G.f” for “Wheat eye spot (Pseudocercoporella herpotrichoides) P.h”

[4] = system: Fusarium oxysporum; assay: Plate medium fungicidal assay, cucumber fusarium wilt F.c (Experimental Example 5); settings: for inhibition at 5 µg/mL / inhibition at 50 µg/mL: Fusarium oxysporum
Description: as §1, with “Cucumber fusarium wilt (Fusarium oxysporum) F.c” for “Wheat eye spot (Pseudocercoporella herpotrichoides) P.h”

[5] = system: Rhynchosporium secalis; assay: Plate medium fungicidal assay, barley leaf blotch R.sec (Experimental Example 5); settings: for inhibition at 5 µg/mL / inhibition at 50 µg/mL: Rhynchosporium secalis
Description: as §1, with “Barley leaf blotch (Rhynchosporium secalis) R.sec” for “Wheat eye spot (Pseudocercoporella herpotrichoides) P.h”

[6] = system: Phaeosphaeria nodorum; assay: Plate medium fungicidal assay, wheat Septoria nodorum blotch P.n (Experimental Example 5); settings: for inhibition at 5 µg/mL / inhibition at 50 µg/mL: Parastagonospora nodorum
Description: as §1, with “Septoria nodorum blotch (Phaeosphaeria nodorum) P.n” for “eye spot (Pseudocercoporella herpotrichoides) P.h”

[7] = system: Fusarium graminearum; assay: microbe, parasite or virus in culture; settings: for inhibition at 5 µg/mL / inhibition at 50 µg/mL: Fusarium graminearum
[8] = plate medium containing compound at 5 mg/L
[9] = plate medium containing compound at 50 mg/L
[10] = read-out: growth inhibition grade P.o
[11] = plate medium, 5 mg/L, read-out: growth inhibition grade P.h
[12] = plate medium, 50 mg/L, read-out: growth inhibition grade P.h
[13] = plate medium, 5 mg/L, read-out: growth inhibition grade G.f
[14] = plate medium, 50 mg/L, read-out: growth inhibition grade G.f
[15] = plate medium, 5 mg/L, read-out: growth inhibition grade F.c
[16] = plate medium, 50 mg/L, read-out: growth inhibition grade F.c
[17] = plate medium, 5 mg/L, read-out: growth inhibition grade R.sec
[18] = plate medium, 50 mg/L, read-out: growth inhibition grade R.sec
[19] = plate medium, 5 mg/L, read-out: growth inhibition grade P.n
[20] = plate medium, 50 mg/L, read-out: growth inhibition grade P.n
[21] = read-out: growth inhibition grade F.g
[22] = read-out: Growth inhibition grade, P.o
[23] = read-out: Growth inhibition grade, F.g

In the case of `C[C@]1(CCl)CC[C@@H](Cc2ccc(-c3ccccc3)cc2)[C@]1(O)Cn1cncn1` (relative stereo) [Compound I-82], the “Growth inhibition grade, P.o” value [1, 8] is reported as 5 (% Mycerial growth inhibition of 80% or higher), the “Growth inhibition grade, P.o” value [1, 9] is reported as 5 (% Mycerial growth inhibition of 80% or higher) and the “Growth inhibition grade, P.h” value [2, 8] is reported as 5 (% Mycerial growth inhibition of 80% or higher). The “Growth inhibition grade, P.h” value [2, 9] was 5 (% Mycerial growth inhibition of 80% or higher), the “Growth inhibition grade, G.f” value [3, 8] was 5 (% Mycerial growth inhibition of 80% or higher) and the “Growth inhibition grade, G.f” value [3, 9] was 5 (% Mycerial growth inhibition of 80% or higher). For the same compound, the “Growth inhibition grade, F.c” value [4, 8] was 5 (% Mycerial growth inhibition of 80% or higher), the “Growth inhibition grade, F.c” value [4, 9] was 5 (% Mycerial growth inhibition of 80% or higher) and the “Growth inhibition grade, R.sec” value [5, 8] was 5 (% Mycerial growth inhibition of 80% or higher). The “Growth inhibition grade, R.sec” value [5, 9] was 5 (% Mycerial growth inhibition of 80% or higher), the “Growth inhibition grade, P.n” value [6, 8] was 5 (% Mycerial growth inhibition of 80% or higher) and the “Growth inhibition grade, P.n” value [6, 9] was 5 (% Mycerial growth inhibition of 80% or higher). For the same compound, the “Growth inhibition grade, F.g” value [7, 8] was 5 (% Mycerial growth inhibition of 80% or higher) and the “Growth inhibition grade, F.g” value [7, 9] was 5 (% Mycerial growth inhibition of 80% or higher).

Work on `CC(Cl)=C[C@]1(C)CC[C@@H](Cc2ccc(Cl)cc2)[C@]1(O)Cn1cncn1` (racemic) [Compound I-115, (1RS,2SR,5SR)-5-(4-chlorobenzyl)-2-(2-chloropropenyl)-2-methyl-1-(1H-1,2,4-triazol-1-ylmethyl)cyclopentanol] yielded an inhibition at 5 µg/mL [1, 10] of over 80%, an inhibition at 50 µg/mL [1, 10] of over 80% and an inhibition at 5 µg/mL [2, 11] of over 80%. For the same compound, the inhibition at 50 µg/mL [2, 12] was over 80%, the inhibition at 5 µg/mL [3, 13] was over 80% and the inhibition at 50 µg/mL [3, 14] was over 80%. It also gave an inhibition at 5 µg/mL [4, 15] of over 80%, an inhibition at 50 µg/mL [4, 16] of over 80% and an inhibition at 5 µg/mL [5, 17] of over 80%. For the same compound, the inhibition at 50 µg/mL [5, 18] was over 80%, the inhibition at 5 µg/mL [6, 19] was 60 to 80% and the inhibition at 50 µg/mL [6, 20] was over 80%. The inhibition at 5 µg/mL [7, 21] was over 80% and the inhibition at 50 µg/mL [7, 21] was over 80%.

With `CC[C@]1(CCl)CC[C@@H](Cc2ccc(Cl)cc2)[C@]1(O)Cn1cncn1` (racemic) [Compound I-36, (1RS,2SR,5SR)-5-(4-chlorobenzyl)-2-chloromethyl-2-ethyl-1-(1H-1,2,4-triazol-1-ylmethyl)cyclopentanol] the inhibition at 5 µg/mL [1, 22] was over 80%, the inhibition at 50 µg/mL [1, 22] was over 80% and the inhibition at 5 µg/mL ([2]; plate medium containing compound at 5 mg/L, read-out: Growth inhibition grade, P.h) was over 80%. The inhibition at 50 µg/mL ([2]; plate medium containing compound at 50 mg/L, read-out: Growth inhibition grade, P.h) was over 80%, the inhibition at 5 µg/mL ([3]; plate medium containing compound at 5 mg/L, read-out: Growth inhibition grade, G.f) was over 80% and the inhibition at 50 µg/mL ([3]; plate medium containing compound at 50 mg/L, read-out: Growth inhibition grade, G.f) was over 80%. It also gave an inhibition at 5 µg/mL ([4]; plate medium containing compound at 5 mg/L, read-out: Growth inhibition grade, F.c) of over 80%, an inhibition at 50 µg/mL ([4]; plate medium containing compound at 50 mg/L, read-out: Growth inhibition grade, F.c) of over 80% and an inhibition at 5 µg/mL ([5]; plate medium containing compound at 5 mg/L, read-out: Growth inhibition grade, R.sec) of over 80%. For the same compound, the inhibition at 50 µg/mL ([5]; plate medium containing compound at 50 mg/L, read-out: Growth inhibition grade, R.sec) was over 80%, the inhibition at 5 µg/mL ([6]; plate medium containing compound at 5 mg/L, read-out: Growth inhibition grade, P.n) was over 80% and the inhibition at 50 µg/mL ([6]; plate medium containing compound at 50 mg/L, read-out: Growth inhibition grade, P.n) was over 80%. It also gave an inhibition at 5 µg/mL [7, 23] of over 80% and an inhibition at 50 µg/mL [7, 23] of over 80%.

`C[C@]1(CCl)CC[C@H](Cc2ccc(Cl)cc2)[C@]1(O)Cn1cncn1` (racemic) [Compound I-301, (1RS,2SR,5RS)-5-(4-chlorobenzyl)-2-chloromethyl-2-methyl-1-[1,2,4]triazol-1-ylmethylcyclopentanol] gave an inhibition at 5 µg/mL [1, 10] of over 80%, an inhibition at 50 µg/mL [1, 10] of over 80% and an inhibition at 5 µg/mL [2, 11] of over 80%. The inhibition at 50 µg/mL [2, 12] was over 80%, the inhibition at 5 µg/mL [3, 13] was over 80% and the inhibition at 50 µg/mL [3, 14] was over 80%. For the same compound, the inhibition at 5 µg/mL [4, 15] was over 80%, the inhibition at 50 µg/mL [4, 16] was over 80% and the inhibition at 5 µg/mL [5, 17] was over 80%. It also gave an inhibition at 50 µg/mL [5, 18] of over 80%, an inhibition at 5 µg/mL [6, 19] of over 80% and an inhibition at 50 µg/mL [6, 20] of over 80%. For the same compound, the inhibition at 5 µg/mL [7, 21] was over 80% and the inhibition at 50 µg/mL [7, 21] was over 80%.

`C[C@]1(CCl)CC[C@@H](Cc2ccccc2F)[C@]1(O)Cn1cncn1` (relative stereo) [Compound I-86] was tested, and the “Growth inhibition grade, P.o” value [1, 8] was 5 (% Mycerial growth inhibition of 80% or higher), the “Growth inhibition grade, P.o” value [1, 9] was 5 (% Mycerial growth inhibition of 80% or higher) and the “Growth inhibition grade, P.h” value [2, 8] was 5 (% Mycerial growth inhibition of 80% or higher). For the same compound, the “Growth inhibition grade, P.h” value [2, 9] was 5 (% Mycerial growth inhibition of 80% or higher), the “Growth inhibition grade, G.f” value [3, 8] was 5 (% Mycerial growth inhibition of 80% or higher) and the “Growth inhibition grade, G.f” value [3, 9] was 5 (% Mycerial growth inhibition of 80% or higher). The “Growth inhibition grade, F.c” value [4, 8] was 5 (% Mycerial growth inhibition of 80% or higher), the “Growth inhibition grade, F.c” value [4, 9] was 5 (% Mycerial growth inhibition of 80% or higher) and the “Growth inhibition grade, R.sec” value [5, 8] was 5 (% Mycerial growth inhibition of 80% or higher). The “Growth inhibition grade, R.sec” value [5, 9] was 5 (% Mycerial growth inhibition of 80% or higher), the “Growth inhibition grade, P.n” value [6, 8] was 5 (% Mycerial growth inhibition of 80% or higher) and the “Growth inhibition grade, P.n” value [6, 9] was 5 (% Mycerial growth inhibition of 80% or higher). The “Growth inhibition grade, F.g” value [7, 8] was 5 (% Mycerial growth inhibition of 80% or higher) and the “Growth inhibition grade, F.g” value [7, 9] was 5 (% Mycerial growth inhibition of 80% or higher).
